# Source: patent US6486185B1, “3-heteroarylidene-2-indolinone protein kinase inhibitors” (Sugen, Inc., priority 1997, dated 2002)
# Biological target: T1, IGF-1R (Homo sapiens, UniProt P08069)
# T1 construct: expressed in transfected cells; host or cells: NIH3T3 (3T3/IGF-1R)
# Assay: IGF-I receptor ELISA in 3T3/IGF-1R cells
# Assay type: cell-based
# Conditions: 50% inhibition of PTK activity over control
# Procedure: The cellular/catalytic assays described herein are performed in an ELISA format. The general procedure is a follows: a compound is introduced to cells expressing the test kinase, either naturally or recombinantly, for some period of time after which, if the test kinase is a receptor, a ligand known to activate the receptor's activity is added. The cells are lysed and the lysate is transferred to the wells of an ELISA plate previously coated with a specific antibody recognizing the substrate of the enzymatic phosphorylation reaction. Non-substrate components of the cell lysate are washed away and the amount of phosphorylation on the substrate is detected with an antibody specifically recognizing phosphotyrosine compared with control cells that were not contacted with a test compound.
# The following protocol may be used to measure phosphotyrosine level on IGF-I receptor, which indicates IGF-I receptor tyrosine kinase activity.
# The following materials and reagents are used:
# a. The cell line used in this assay is 3T3/IGF-1R, a cell line genetically engineered to overexpresses IGF-1 receptor.
# b. NIH3T3/IGF-1R is grown in an incubator with 5% CO2 at 37° C. The growth media is DMEM+10% FBS (heat inactivated)+2 mM L-glutamine.
# c. Affinity purified anti-IGF-1R antibody 17-69.
# e. Blocking Buffer: TBST plus 5% Milk (Carnation Instant Non-Fat Dry Milk).
# Stock solution of TBS (10×) is prepared, and Triton X-100 is added to the buffer during dilution.
# Stock solution (5×) is prepared and kept at 4° C.
# h. EDTA/HCl: 0.5 M pH 7.0 (NaOH) as 100×stock.
# i. Na3VO4: 0.5 M as 100×stock and aliquots are kept in −80° C.
# k. Insulin-like growth factor-1 from Promega (Cat# G5111).
# l. Rabbit polyclonal anti-phosphotyrosine antiserum.
# m. Goat anti-rabbit IgG, POD conjugate (detection antibody), Tago (Cat. No. 4520, Lot No. 1802): Tago, Inc., Burlingame, Calif.
# n. ABTS (2,2′-azinobis(3-ethylbenzthiazolinesulfonic acid)) solution:
# ABTS solution should be kept in dark and 4° C. The solution should be discarded when it turns green.
# o. Hydrogen Peroxide: 30% solution is kept in the dark and at 4° C.
# All the following steps are conducted at room temperature unless it is specifically indicated. All ELISA plate washings are performed by rinsing the plate with tap water three times, followed by one TBST rinse. Pat plate dry with paper towels.
# 1. The cells, grown in tissue culture dish (Corning 25020-100) to 80-90% confluence, are harvested with Trypsin-EDTA (0.25%, 0.5 mL/D-100, GIBCO).
# 2. Resuspend the cells in fresh DMEM+10% FBS+2 mM L-Glutamine, and transfer to 96-well tissue culture plate (Corning, 25806-96) at 20,000 cells/well (100 μL/well). Incubate for 1 day then replace medium to serum-free medium (90/μL) and incubate in 5% CO2 and 37° C. overnight.
# B. ELISA Plate Coating and Blocking:
# 1. Coat the ELISA plate (Corning 25805-96) with Anti-IGF-1R Antibody at 0.5 μg/well in 100 μL PBS at least 2 hours.
# 2. Remove the coating solution, and replace with 100 μL Blocking Buffer, and shake for 30 minutes. Remove the blocking buffer and wash the plate just before adding lysate.
# 1. The drugs are tested in serum-free condition.
# 2. Dilute drug stock (in 100% DMSO) 1:10 with DMEM in 96-well poly-propylene plate, and transfer 10 μL/well of this solution to the cells to achieve final drug dilution 1:100, and final DMSO concentration of 1.0%. Incubate the cells in 5% CO2 at 37° C. for 2 hours.
# 3. Prepare fresh cell lysis buffer (HNTG*)
# 4. After drug incubation for two hours, transfer 10 μL/well of 200 nM IGF-1 Ligand in PBS to the cells (Final Conc.=20 nM), and incubate at 5% CO2 at 37° C. for 10 minutes.
# 5. Remove media and add 100 μL/well HNTG* and shake for 10 minutes. Look at cells under microscope to see if they are adequately lysed.
# 6. Use a 12-channel pipette to scrape the cells from the plate, and homogenize the lysate.by repeated aspiration and dispensing. Transfer all the lysate to the antibody coated ELISA plate, and shake for 1 hour.
# 7. […]
# T1 sequence (P08069 31-1367, species assumed): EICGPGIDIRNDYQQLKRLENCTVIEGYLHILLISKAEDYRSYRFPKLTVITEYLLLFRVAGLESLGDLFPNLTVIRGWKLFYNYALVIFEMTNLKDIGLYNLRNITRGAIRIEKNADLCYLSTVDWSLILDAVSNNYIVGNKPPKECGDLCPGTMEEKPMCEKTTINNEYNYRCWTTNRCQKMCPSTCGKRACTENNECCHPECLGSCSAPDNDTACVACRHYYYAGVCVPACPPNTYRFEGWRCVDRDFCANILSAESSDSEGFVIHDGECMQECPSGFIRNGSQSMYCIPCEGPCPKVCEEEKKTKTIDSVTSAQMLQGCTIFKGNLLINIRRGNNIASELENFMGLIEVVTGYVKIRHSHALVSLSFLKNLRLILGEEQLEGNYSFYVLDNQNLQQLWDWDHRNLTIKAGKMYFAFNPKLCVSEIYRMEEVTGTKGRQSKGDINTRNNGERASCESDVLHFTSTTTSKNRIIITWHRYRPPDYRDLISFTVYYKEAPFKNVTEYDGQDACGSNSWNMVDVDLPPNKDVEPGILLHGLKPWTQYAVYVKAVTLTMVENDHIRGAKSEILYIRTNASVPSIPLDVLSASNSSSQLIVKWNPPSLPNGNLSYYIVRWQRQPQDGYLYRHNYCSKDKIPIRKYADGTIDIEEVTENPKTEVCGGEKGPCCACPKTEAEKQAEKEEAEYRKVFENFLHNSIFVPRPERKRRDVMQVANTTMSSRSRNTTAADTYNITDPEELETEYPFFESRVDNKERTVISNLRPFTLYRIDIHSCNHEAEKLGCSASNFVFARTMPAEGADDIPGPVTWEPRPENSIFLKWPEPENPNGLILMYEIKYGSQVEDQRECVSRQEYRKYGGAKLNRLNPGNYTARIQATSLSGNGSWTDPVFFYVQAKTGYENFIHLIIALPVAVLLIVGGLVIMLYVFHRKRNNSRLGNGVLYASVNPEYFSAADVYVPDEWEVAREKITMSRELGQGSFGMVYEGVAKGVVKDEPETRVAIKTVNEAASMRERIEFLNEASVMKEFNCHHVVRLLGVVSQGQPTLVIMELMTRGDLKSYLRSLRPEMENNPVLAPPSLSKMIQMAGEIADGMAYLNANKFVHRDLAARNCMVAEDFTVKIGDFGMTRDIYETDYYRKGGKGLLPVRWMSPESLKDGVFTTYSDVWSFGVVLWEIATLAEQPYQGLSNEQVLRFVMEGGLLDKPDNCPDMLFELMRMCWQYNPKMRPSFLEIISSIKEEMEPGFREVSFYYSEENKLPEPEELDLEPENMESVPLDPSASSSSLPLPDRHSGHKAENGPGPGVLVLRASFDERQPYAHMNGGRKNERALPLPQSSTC
row,SMILES,IC50 [µM]
1,"CCOC(=O)c1c(C)[nH]c(C=C2C(=O)Nc3ccc(NC(=O)c4ccc(C(=O)OC)cc4)cc32)c1C [3-(2,4-dimethyl-3-ethoxycarbonylpyrrol-5-methylidenyl)-5-(4-methoxycarbonylbenzamido)-2-indolinone]",> 10
2,"CCOC(=O)c1c(C)[nH]c(C=C2C(=O)Nc3ccc(Br)cc32)c1C [3-(2,4-dimethyl-3-ethoxycarbonylpyrrol-5-methylidenyl)-5-bromo-2-indolinone]",> 100
3,"CC(=O)c1[nH]c(C=C2C(=O)Nc3ccccc32)c(C)c1C [3-(2-acetyl-3,4-dimethylpyrrol-5-methylidenyl)-2-indolinone]",> 100
4,COC(=O)Cc1c(Cl)[nH]c(C=C2C(=O)Nc3ccccc32)c1C(=O)OC [3-(2-chloro-4-methoxycarbonyl-3-methoxycarbonylmethylpyrrol-5-methylidenyl)-2-indolinone],> 50
5,CCOC(=O)c1[nH]c(C=C2C(=O)Nc3ccccc32)c(C(C)=O)c1C [3-(4-acetyl-2-ethoxycarbonyl-3-methylpyrrol-5-methylidenyl)-2-indolinone],> 10
6,CCOC(=O)c1c[nH]c(C=C2C(=O)Nc3ccccc32)c1C [3-(4-ethoxycarbonyl-3-methylpyrrol-2-methylidenyl)-2-indolinone],> 100
7,CCOC(=O)CCc1c(C(=O)OCC)[nH]c(C=C2C(=O)Nc3ccccc32)c1CC(=O)OCC [3-[2-ethoxycarbonyl-3-(2-ethoxycarbonylethyl)-4-ethoxycarbonylmethyl)pyrrol-5-methylidenyl)-2-indolinone],> 10
8,Cc1c[nH]c(C=C2C(=O)Nc3ccccc32)c1CCC(=O)O [3-[3-(2-carboxyethyl-4-methylpyrrol-2-methylidenyl]-2-indolinone],> 100
9,"COC(=O)CCc1c[nH]c(C=C2C(=O)Nc3cc(OC)c(OC)cc32)c1C [3-[4-(2-methoxycarbonylethyl)-3-methylpyrrol-2-methylidenyl]-5,6-dimethoxy-2-indolinone]",> 50
10,COC(=O)CCc1c[nH]c(C=C2C(=O)Nc3ccccc32)c1C [3-[4-(2-methoxycarbonylethyl-3-methylpyrrol-2-methylidenyl]-2-indolinone],> 100
